Test system: NF-kB pathway, Ramos cells
Test: NFkB/Ramos reporter assay
Settings: Homo sapiens, read-out: IC50 Cell-based selectivity: NF-kB pathway Ramos cells
Procedure: Cells were plated on the day prior to the assay. Media required included:
• 1. Cells were harvest from culture in Growth Medium and resuspend in Assay Medium at a density of 1.6×10^6 cells/ml. • 2. 32 μl per well of Assay medium were added to the cell-free control wells. 32 μl per well of a cell suspension were added to Unstimulated and Stimulated wells • 3. After plating, the plates were incubated in a 37° C./5% CO2 incubator for 16-20 hours. Preparation of DMSO Solution:
A solution was prepared of 5% DMSO solution (10×) in Assay Media.
A solution was prepared of 10×TNFα solution in Assay Medium. It is recommended to run a dose response curve to determine the EC80 for the Stimulation Solution.
• 1. 4 μl of 10×DMSO solution was added to each well. • 2. 4 μl of Assay Medium was added to the Unstimulated wells and to the Cell-Free wells. • 3. 4 μl of the 10×TNFα was added to the Stimulated wells. • 4. The assay plate was incubated in a humidified 37° C./5% CO2 incubator for 5 hours. Substrate Loading and Incubation
This protocol is designed for loading cells with LiveBLAzer™-FRET B/G Substrate (CCF4-AM) or CCF2-AM. If alternative substrates are used it is recommended to follow the loading protocol provided with the substrate. […]
Added 934 μl Solution C to the combined solutions from above step and vortexed. • 3. […] The cells were counted and then spun cells down and resuspended in 4° C. […]

For `O=C(CN1CCOCC1)Nc1cccc(-c2nc(-c3c[nH]c(C(=O)N4CCCC4)c3)cs2)c1` [7A, 2-morpholino-N-(3-(4-(5-(pyrrolidine-1-carbonyl)-1H-pyrrol-3-yl)thiazol-2-yl)phenyl)acetamide], the IC50 was > 100 µM.
